# Source: patent US10227346B2, “Methyl- and trifluoromethyl-substituted pyrrolopyridine modulators of RORC2 and methods of use therof” (Pfizer Inc., priority 2014, dated 2019)
# pIC50: −log10 of the molar value.
# System: IL-17 production from human Th17 cells;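 further: purified human CD4+ T cells activated with anti-CD3 plus anti-CD28 and a Th17-inducing cytokine cocktail, with compound at serial concentrations versus no compound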
# Test: IL-17 production from human Th17 cells;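 further: purified human CD4+ T cells activated with anti-CD3 plus anti-CD28 and a Th17-inducing cytokine cocktail, with compound at serial concentrations versus no compound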
# Type: cell-based
# Settings: IL-17A in supernatant by ELISA after 6 days, human CD4+ T cells under Th17 differentiation
row,SMILES,pIC50
1,"COc1cc(Cl)cc(C(=O)Nc2cnc3c(c([C@@H]4CCN(C(=O)C5CCCC5)C(C)(C)C4)cn3C)c2C)c1 [Example 63, (R)-3-chloro-N-(3-(1-(cyclopentane-carbonyl)-2,2-dimethylpiperidin-4-yl)-1,4-dimethyl-1H-pyrrolo[2,3-b]pyridin-5-yl)-5-methoxybenzamide]",7.92
2,"Cc1c(NC(=O)c2cc(O)cc(C#N)c2)cnc2c1c([C@@H]1CCN(C(=O)C3CCCC3)C(C)(C)C1)cn2C [Example 64, (R)-3-cyano-N-(3-(1-(cyclopentanecarbonyl)-2,2-dimethylpiperidin-4-yl)-1,4-dimethyl-1H-pyrrolo[2,3-b]pyridin-5-yl)-5-hydroxybenzamide]",7.99
3,"Cn1cc([C@@H]2CCN(C(=O)C3CCCC3)C(C)(C)C2)c2c(C(F)(F)F)c(NC(=O)c3cccc(C#N)c3)cnc21 [Example 65, (R)-3-cyano-N-(3-(1-(cyclopentanecarbonyl)-2,2-dimethylpiperidin-4-yl)-1-methyl-4-(trifluoromethyl)-1H-pyrrolo[2,3-b]pyridin-5-yl)benzamide]",7.97
4,"Cc1c(NC(=O)c2cccc(C#N)c2)cnc2c1c([C@@H]1CCN(C(=O)C[C@@H](O)C(F)(F)F)C(C)(C)C1)cn2C [Example 73, 3-cyano-N-(3-((R)-2,2-dimethyl-1-((R)-4,4,4-trifluoro-3-hydroxybutanoyl)piperidin-4-yl)-1,4-dimethyl-1H-pyrrolo[2,3-b]pyridin-5-yl)benzamide]",7.60
5,"Cc1c(NC(=O)c2cccc(C#N)c2)cnc2c1c([C@@H]1CCN(C(=O)CC3CCCC3)C(C)(C)C1)cn2C [Example 74, (R)-3-cyano-N-(3-(1-(2-cyclopentylacetyl)-2,2-dimethylpiperidin-4-yl)-1,4-dimethyl-1H-pyrrolo[2,3-b]pyridin-5-yl)benzamide]",8.44
6,"Cc1c(NC(=O)c2cccc(C#N)c2)cnc2c1c([C@@H]1CCN(C(=O)CC3CCCCC3)C(C)(C)C1)cn2C [Example 75, (R)-3-cyano-N-(3-(1-(2-cyclohexylacetyl)-2,2-dimethylpiperidin-4-yl)-1,4-dimethyl-1H-pyrrolo[2,3-b]pyridin-5-yl)benzamide]",8.17

# The next lines start with the values.
row,pIC50,SMILES
1,8.30,"Cc1c(NC(=O)c2cccc(C#N)c2)cnc2c1c([C@@H]1CCN(C(=O)CC3CCC3)C(C)(C)C1)cn2C [Example 76, (R)-3-cyano-N-(3-(1-(2-cyclobutylacetyl)-2,2-dimethylpiperidin-4-yl)-1,4-dimethyl-1H-pyrrolo[2,3-b]pyridin-5-yl)benzamide]"
2,8.05,"CC(C)C(=O)N1C[C@H]2CC[C@@H](C1)[C@@H]2c1cn(C)c2ncc(NC(=O)c3cccc(C#N)c3)c(C(F)(F)F)c12 [Example 77, 3-cyano-N-(3-((1R,5S,8r)-3-isobutyryl-3-azabicyclo[3.2.1]octan-8-yl)-1-methyl-4-(trifluoromethyl)-1H-pyrrolo[2,3-b]pyridin-5-yl)benzamide]"
3,8.39,"Cn1cc(C2[C@@H]3CC[C@H]2CN(C(=O)C2CCCC2)C3)c2c(C(F)(F)F)c(NC(=O)c3cccc(C#N)c3)cnc21 (stereo partly drawn) [Example 79, 3-cyano-N-{3-((1R,5S,8r)-3-(cyclopentanecarbonyl)-3-azabicyclo[3.2.1]octan-8-yl]-1-methyl-4-(trifluoromethyl)-1H-pyrrolo[2,3-b]pyridin-5-yl}benzamide]"
4,8.24,"CC(C)C(=O)N1CC[C@@H](c2cn(C)c3ncc(NC(=O)c4cccc(C#N)c4F)c(C(F)(F)F)c23)[C@@H](C)C1 [Example 82, 3-cyano-2-fluoro-N-(3-((3R,4R)-1-isobutyryl-3-methylpiperidin-4-yl)-1-methyl-4-(trifluoromethyl)-1H-pyrrolo[2,3-b]pyridin-5-yl)benzamide]"
5,7.46,"Cc1c(NC(=O)c2cccc(C#N)c2)cnc2c1c([C@@H]1CCN(C(=O)C(C)C3CC3)C[C@@H]1C)cn2C (stereo partly drawn) [Example 86, 3-cyano-N-(3-((3R,4R)-1-(2-cyclopropylpropanoyl)-3-methylpiperidin-4-yl)-1,4-dimethyl-1H-pyrrolo[2,3-b]pyridin-5-yl)benzamide]"
